Our source for the GI50 and TGI values is PubChem BioAssay (NCI).

Values joined by “and” are separate entries in the source; they are usually repeats but may differ in a detail not shown here. Equal entries are not always repeated.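 Tested at 5 concentrations; 48 h exposure; 96-well plates; endpoints linearly interpolated, else capped at highest concentration. GI50 = concentration required for 50% inhibition of growth. TGI is the concentration that stops growth completely.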

In one test the test system is HOP-62 NSCLC. Put plainly: NCI-60 cell line screen, 48 h.
`Cc1nn2c(/C=C3\C(=O)Nc4ccc(Cl)cc43)c(C)nc2s1`: the GI50 was 61.1 µM and the TGI was greater than 100 µM.
The matching figures for `c1ccc2[nH]c(-c3ccc(-c4nccc5c4[nH]c4ccccc45)cc3)nc2c1`: 2.8 µM and 10.8 µM.
In the same order, the values of `CN(O)c1nc(N(C)O)nc(N2CCOCC2)n1` are 2.27 µM and greater than 100 µM.
In the same order, the values of `C#Cc1c(F)ccc2cc(O)cc(-c3ncc4c(N5CC6CCC(C5)N6)nc(OC[C@@]56CCCN5C[C@H](F)C6)nc4c3F)c12` are 2.18 µM and 22.4 µM.
With `C=C(C)C(=O)Nc1ccc(NC(C)C)cc1`, the GI50 is greater than 100 µM and the TGI was greater than 100 µM.
Take `COc1cc(CSc2nc3ccc(C)cc3c(=O)n2-c2ccccc2)cc(OC)c1OC`: the GI50 was 2.48 µM and the TGI is greater than 100 µM.
In the same order, the values of `C=C(C)C(=O)O[C@H]1CC(=C)[C@@H]2C[C@H](O)[C@](O)(CCl)[C@@H]2[C@H]2OC(=O)C(=C)[C@@H]21` are 10.5 µM and 23.3 µM.
With `CCC1C2Cc3ccc(O)cc3C1(CC)CCN2C` (centres undefined), the TGI is greater than 100 µM.
As to `C(#Cc1ccccc1C#Cc1cccs1)c1cccs1`, the GI50 is 77.3 µM and the TGI was greater than 100 µM.
In the case of `CC1CCC(NC(=O)N(CCCl)N=O)CC1` (centres undefined), the GI50 is 71.2 µM and the TGI was found to be 93 µM.
For `COc1ccc(C2=CC(c3ccc4c(c3)OCO4)c3c(c4ccccc4oc3=O)O2)cc1OC` (centres undefined), the TGI was greater than 100 µM.
Consider `CC(C)[C@H](N)C(=O)N1CCC[C@H]1B(O)O`, for which the GI50 is greater than 100 µM and the TGI is greater than 100 µM.
With `CC(C)(C)n1cc(-c2ccnc(NCCCNS(=O)(=O)c3ccc(C(F)(F)F)cc3)c2)c(-c2cccc(O)c2)n1`, the GI50 is 1.93 µM and the TGI stood at 3.85 µM.
With `Nc1c(C(=O)c2cccc(-c3ccncc3)c2)cnn1-c1ccc(F)cc1F`, the GI50 is 9.3 µM and the TGI is greater than 25 µM.
The matching figures for `C=C1C(=O)O[C@H]2[C@H]1CC/C(COC(=O)NCc1ccc(Cn3c(=O)sn(CCCl)c3=O)cc1)=C\CC[C@@]1(C)O[C@@H]21`: 16.3 µM and 31.5 µM.

For another test, the system named is NCI-H226 lung. Put plainly: NCI-60 cell line screen, 48 h.
For the compound `Cc1nn2c(/C=C3\C(=O)Nc4ccc(Cl)cc43)c(C)nc2s1`, the GI50 is greater than 100 µM and the TGI is greater than 100 µM.
Regarding `c1ccc2[nH]c(-c3ccc(-c4nccc5c4[nH]c4ccccc45)cc3)nc2c1`, the GI50 was 2.27 µM and the TGI is 5.56 µM.
The matching figures for `CN(O)c1nc(N(C)O)nc(N2CCOCC2)n1`: 7.64 µM and greater than 100 µM.
Turning to `C#Cc1c(F)ccc2cc(O)cc(-c3ncc4c(N5CC6CCC(C5)N6)nc(OC[C@@]56CCCN5C[C@H](F)C6)nc4c3F)c12`, the GI50 was 15.1 µM and the TGI was 35.1 µM.
The matching figures for `C=C(C)C(=O)Nc1ccc(NC(C)C)cc1`: greater than 100 µM and greater than 100 µM.
With `COc1cc(CSc2nc3ccc(C)cc3c(=O)n2-c2ccccc2)cc(OC)c1OC`, the GI50 was 3.4 µM and the TGI was greater than 100 µM.
For the compound `C=C(C)C(=O)O[C@H]1CC(=C)[C@@H]2C[C@H](O)[C@](O)(CCl)[C@@H]2[C@H]2OC(=O)C(=C)[C@@H]21`, the GI50 was 19.6 µM and the TGI is 46.2 µM.
Regarding `CCC1C2Cc3ccc(O)cc3C1(CC)CCN2C` (centres undefined), the TGI is greater than 100 µM.
With `C(#Cc1ccccc1C#Cc1cccs1)c1cccs1`, the GI50 was 39.2 µM and the TGI was greater than 100 µM.
In the same order, the values of `CC1CCC(NC(=O)N(CCCl)N=O)CC1` (centres undefined) are 36.1 µM and 150 µM.
Regarding `COc1ccc(C2=CC(c3ccc4c(c3)OCO4)c3c(c4ccccc4oc3=O)O2)cc1OC` (centres undefined), the TGI is 6.72 µM.
For `CC(C)[C@H](N)C(=O)N1CCC[C@H]1B(O)O`, the GI50 was greater than 100 µM and the TGI is greater than 100 µM.
As for `CC(C)(C)n1cc(-c2ccnc(NCCCNS(=O)(=O)c3ccc(C(F)(F)F)cc3)c2)c(-c2cccc(O)c2)n1`, the GI50 is 2.35 µM and the TGI came to 5.71 µM.
The matching figures for `Nc1c(C(=O)c2cccc(-c3ccncc3)c2)cnn1-c1ccc(F)cc1F`: 4.36 µM and greater than 25 µM.
The matching figures for `C=C1C(=O)O[C@H]2[C@H]1CC/C(COC(=O)NCc1ccc(Cn3c(=O)sn(CCCl)c3=O)cc1)=C\CC[C@@]1(C)O[C@@H]21`: 17.2 µM and 37.3 µM.

The subject of a further test is SK-MEL-5 melanoma. Put plainly: NCI-60 cell line screen, 48 h.
With `Cc1nn2c(/C=C3\C(=O)Nc4ccc(Cl)cc43)c(C)nc2s1`, the GI50 is 10.1 µM and the TGI was greater than 100 µM.
Regarding `c1ccc2[nH]c(-c3ccc(-c4nccc5c4[nH]c4ccccc45)cc3)nc2c1`, the GI50 is 3.69 µM and the TGI was determined as 14.3 µM.
As for `CN(O)c1nc(N(C)O)nc(N2CCOCC2)n1`, the GI50 was 4.09 µM and the TGI was greater than 100 µM.
Take `C#Cc1c(F)ccc2cc(O)cc(-c3ncc4c(N5CC6CCC(C5)N6)nc(OC[C@@]56CCCN5C[C@H](F)C6)nc4c3F)c12`: the GI50 was 14.9 µM and the TGI turned out to be 28.2 µM.
Consider `C=C(C)C(=O)Nc1ccc(NC(C)C)cc1`, for which the GI50 is greater than 100 µM and the TGI was greater than 100 µM.
On to `COc1cc(CSc2nc3ccc(C)cc3c(=O)n2-c2ccccc2)cc(OC)c1OC`, for which the GI50 is 0.435 µM and the TGI worked out at 19.9 µM.
The matching figures for `C=C(C)C(=O)O[C@H]1CC(=C)[C@@H]2C[C@H](O)[C@](O)(CCl)[C@@H]2[C@H]2OC(=O)C(=C)[C@@H]21`: 8.66 µM and 23.4 µM.
In the case of `CCC1C2Cc3ccc(O)cc3C1(CC)CCN2C` (centres undefined), the TGI was greater than 100 µM.
For the compound `C(#Cc1ccccc1C#Cc1cccs1)c1cccs1`, the GI50 was 23.6 µM and the TGI is greater than 100 µM.
The matching figures for `CC1CCC(NC(=O)N(CCCl)N=O)CC1` (centres undefined): 29.8 µM and greater than 87.5 µM.
In turn, `COc1ccc(C2=CC(c3ccc4c(c3)OCO4)c3c(c4ccccc4oc3=O)O2)cc1OC` (centres undefined) gave a TGI greater than 100 µM.
As to `CC(C)[C@H](N)C(=O)N1CCC[C@H]1B(O)O`, the GI50 was greater than 100 µM and the TGI is greater than 100 µM.
In the case of `CC(C)(C)n1cc(-c2ccnc(NCCCNS(=O)(=O)c3ccc(C(F)(F)F)cc3)c2)c(-c2cccc(O)c2)n1`, the GI50 is 1.6 µM and the TGI was determined as 2.97 µM.
In the same order, the values of `Nc1c(C(=O)c2cccc(-c3ccncc3)c2)cnn1-c1ccc(F)cc1F` are 1.68 µM and 8.49 µM.
The matching figures for `C=C1C(=O)O[C@H]2[C@H]1CC/C(COC(=O)NCc1ccc(Cn3c(=O)sn(CCCl)c3=O)cc1)=C\CC[C@@]1(C)O[C@@H]21`: 1.7 µM and 3.24 µM.

The test system of a further test is RXF 393 renal. Put plainly: NCI-60 cell line screen, 48 h.
Turning to `Cc1nn2c(/C=C3\C(=O)Nc4ccc(Cl)cc43)c(C)nc2s1`, the GI50 was greater than 100 µM and the TGI is greater than 100 µM.
On to `c1ccc2[nH]c(-c3ccc(-c4nccc5c4[nH]c4ccccc45)cc3)nc2c1`, for which the GI50 was 1.93 µM and the TGI is 3.53 µM.
As to `CN(O)c1nc(N(C)O)nc(N2CCOCC2)n1`, the GI50 was 6.15 µM and the TGI was greater than 100 µM.
`C#Cc1c(F)ccc2cc(O)cc(-c3ncc4c(N5CC6CCC(C5)N6)nc(OC[C@@]56CCCN5C[C@H](F)C6)nc4c3F)c12`: the GI50 was 13.5 µM and the TGI was 27.5 µM.
In the same order, the values of `C=C(C)C(=O)Nc1ccc(NC(C)C)cc1` are greater than 100 µM and greater than 100 µM.
Regarding `COc1cc(CSc2nc3ccc(C)cc3c(=O)n2-c2ccccc2)cc(OC)c1OC`, the GI50 is 1.1 µM and the TGI is greater than 25.5 µM.
The matching figures for `C=C(C)C(=O)O[C@H]1CC(=C)[C@@H]2C[C@H](O)[C@](O)(CCl)[C@@H]2[C@H]2OC(=O)C(=C)[C@@H]21`: 1.95 µM and 3.98 µM.
In turn, `CCC1C2Cc3ccc(O)cc3C1(CC)CCN2C` (centres undefined) gave a TGI greater than 100 µM.
For the compound `C(#Cc1ccccc1C#Cc1cccs1)c1cccs1`, the GI50 is 23.9 µM and the TGI was greater than 100 µM.
As for `CC1CCC(NC(=O)N(CCCl)N=O)CC1` (centres undefined), the GI50 was 16.7 µM; the TGI was 33.5 µM and 72.9 µM.
Turning to `COc1ccc(C2=CC(c3ccc4c(c3)OCO4)c3c(c4ccccc4oc3=O)O2)cc1OC` (centres undefined), the TGI was greater than 100 µM.
With `CC(C)[C@H](N)C(=O)N1CCC[C@H]1B(O)O`, the GI50 is greater than 100 µM and the TGI is greater than 100 µM.
Turning to `CC(C)(C)n1cc(-c2ccnc(NCCCNS(=O)(=O)c3ccc(C(F)(F)F)cc3)c2)c(-c2cccc(O)c2)n1`, the GI50 is 1.46 µM and the TGI is 2.89 µM.
The matching figures for `Nc1c(C(=O)c2cccc(-c3ccncc3)c2)cnn1-c1ccc(F)cc1F`: 8.75 µM and greater than 25 µM.
The matching figures for `C=C1C(=O)O[C@H]2[C@H]1CC/C(COC(=O)NCc1ccc(Cn3c(=O)sn(CCCl)c3=O)cc1)=C\CC[C@@]1(C)O[C@@H]21`: 1.18 µM and 2.64 µM.

In another test the test system is DU-145 prostate. Put plainly: NCI-60 cell line screen, 48 h.
As for `Cc1nn2c(/C=C3\C(=O)Nc4ccc(Cl)cc43)c(C)nc2s1`, the GI50 is 86.5 µM and the TGI is greater than 100 µM.
As for `c1ccc2[nH]c(-c3ccc(-c4nccc5c4[nH]c4ccccc45)cc3)nc2c1`, the GI50 is 4.02 µM and the TGI stood at 16.2 µM.
As for `CN(O)c1nc(N(C)O)nc(N2CCOCC2)n1`, the GI50 is 4.93 µM and the TGI is greater than 100 µM.
As for `C#Cc1c(F)ccc2cc(O)cc(-c3ncc4c(N5CC6CCC(C5)N6)nc(OC[C@@]56CCCN5C[C@H](F)C6)nc4c3F)c12`, the GI50 is 14.9 µM and the TGI is 28.6 µM.
The matching figures for `C=C(C)C(=O)Nc1ccc(NC(C)C)cc1`: greater than 100 µM and greater than 100 µM.
In the same order, the values of `COc1cc(CSc2nc3ccc(C)cc3c(=O)n2-c2ccccc2)cc(OC)c1OC` are 3.59 µM and greater than 100 µM.
The matching figures for `C=C(C)C(=O)O[C@H]1CC(=C)[C@@H]2C[C@H](O)[C@](O)(CCl)[C@@H]2[C@H]2OC(=O)C(=C)[C@@H]21`: 2.16 µM and 6.33 µM.
`CCC1C2Cc3ccc(O)cc3C1(CC)CCN2C` (centres undefined) returned a TGI greater than 100 µM.
On to `C(#Cc1ccccc1C#Cc1cccs1)c1cccs1`, for which the GI50 was greater than 100 µM and the TGI is greater than 100 µM.
Consider `CC1CCC(NC(=O)N(CCCl)N=O)CC1` (centres undefined), for which the TGI is 227 µM.
The same measure, in the same setting: for `COc1ccc(C2=CC(c3ccc4c(c3)OCO4)c3c(c4ccccc4oc3=O)O2)cc1OC` (centres undefined) the value was greater than 100 µM.
Turning to `CC(C)[C@H](N)C(=O)N1CCC[C@H]1B(O)O`, the GI50 is greater than 100 µM and the TGI is greater than 100 µM.
`CC(C)(C)n1cc(-c2ccnc(NCCCNS(=O)(=O)c3ccc(C(F)(F)F)cc3)c2)c(-c2cccc(O)c2)n1`: the GI50 was 1.94 µM and the TGI amounted to 3.58 µM.
In the same order, the values of `Nc1c(C(=O)c2cccc(-c3ccncc3)c2)cnn1-c1ccc(F)cc1F` are greater than 22.1 µM and greater than 25 µM.
Regarding `C=C1C(=O)O[C@H]2[C@H]1CC/C(COC(=O)NCc1ccc(Cn3c(=O)sn(CCCl)c3=O)cc1)=C\CC[C@@]1(C)O[C@@H]21`, the GI50 is 1.72 µM and the TGI amounted to 3.14 µM.
